Experimental data published in patent US20080114066A1, “Synergistic Effects Of Docosahexaenoic Acid (DHA) And Carotenoid Absorption Of Cognitive Function” (Trustees of Tufts College, priority 2005, published 2008).

What was measured:
Format in all cases: in vivo, human
[1] = tested on: non-smoking women (60-80 years); assay: Verbal Fluency Test; conditions: group mean
Description: (§1) Subjects: Fifty non-smoking women (60-80 years) were recruited from the general population for a 4 month supplementation study. All subjects underwent a screening examination that includes a medical history, a physical examination, and a routine blood clinical chemistry profile. Volunteers with any history or biochemical evidence of lactose intolerance, liver, kidney, or pancreatic disease, anemia, active bowel disease or resection, insulin-dependent diabetes, easy bruising or bleeding, bleeding disorders, hyperglyceridemia, hyperlipidproteinemia, or alcoholism were excluded from the study. Moreover, individuals taking mineral oil or medications suspected of interfering with fat-soluble vitamin absorption were excluded. Subjects using steroids or non-steroid anti-inflammatory drugs, or antihistamine drugs were excluded. […] Subjects were excluded if they have taken any nutrient supplement for 2 months or more before admission into the study or carotene supplements 6 months or more before the study. Smoking was not permitted during the course of the study.
Women were randomly assigned to one of four groups: Control (n=10), DHA (n=14, DHA 800 mg/d), lutein (n=12, lutein 12 mg/d), and lutein+DHA (n=14, lutein 12 mg/d; DHA 800 mg/d) (C, D, L, and LD, respectively). The supplement type was randomized. Subjects visited the Jean Mayer USDA Human Nutrition Research Center on Aging at Tufts University on days that supplements were distributed and blood obtained (0 mo-baseline, 2 mo, and 4 mo). Subjects were instructed to take the supplement with a nutritional energy drink (8 oz., Boost®, Mead Johnson Nutritionals) but were otherwise asked to not alter their diets. The diet of each subject was monitored with food frequency questionnaires (Block G, et al., A data-based approach to diet questionnaire design and testing. Am J Epidemiol, 1986. 24: p. 453-469) completed at baseline, 2 months and 4 months to be sure that there were no confounding changes in dietary intake. All subjects completed at least two sets of cognitive and mood self-report tests, at the beginning of the study, then at the end of the study, after four months of supplementation, at the Schepens Eye Research Institute. Compliance was by monitored by interview, compliance calendars and capsule count. Both the subjects and the experimenter were masked to the experimental groups. Blood samples were collected at baseline, 2 months and 4 months, and serum was separated from red blood cells (800×g, 10 minutes). Aliquots of serum are stored at −70° C. until analyzed. […]

[2] = tested on: non-smoking women (60-80 years); assay: NES2 Mood Scales (self-reported mood); set-up: scale not given here; conditions: group mean
Description: as §1
(§2) Women were randomly assigned to one of four groups: Control (n=10), DHA (n=14, DHA 800 mg/d), lutein (n=12, lutein 12 mg/d), and lutein+DHA (n=14, lutein 12 mg/d; DHA 800 mg/d) (C, D, L, and LD, respectively). The supplement type was randomized. Subjects visited the Jean Mayer USDA Human Nutrition Research Center on Aging at Tufts University on days that supplements were distributed and blood obtained (0 mo-baseline, 2 mo, and 4 mo). Subjects were instructed to take the supplement with a nutritional energy drink (8 oz., Boost®, Mead Johnson Nutritionals) but were otherwise asked to not alter their diets. The diet of each subject was monitored with food frequency questionnaires (Block G, et al., A data-based approach to diet questionnaire design and testing. Am J Epidemiol, 1986. 24: p. 453-469) completed at baseline, 2 months and 4 months to be sure that there were no confounding changes in dietary intake. All subjects completed at least two sets of cognitive and mood self-report tests, at the beginning of the study, then at the end of the study, after four months of supplementation, at the Schepens Eye Research Institute. Compliance was by monitored by interview, compliance calendars and capsule count. Both the subjects and the experimenter were masked to the experimental groups. Blood samples were collected at baseline, 2 months and 4 months, and serum was separated from red blood cells (800×g, 10 minutes). Aliquots of serum are stored at −70° C. until analyzed. At baseline and 2 months, a two month supply of placebo supplements, DHA (800 mg/d, DHASCO, Martek Biological Sciences), lutein (12 mg/d plus 0.5 mg zeaxanthin, Kemin Foods), or lutein+DHA (12 mg/d and 800 mg/d, respectively and nutritional energy drink was provided. At baseline and 4 months, subjects visited the Schepens Eye Research Institute (Boston, Mass.) for testing of MP optical density (MPOD) and an ophthalmic exam. There were two visits at each time point.
(§3) Supplementation Protocol. Dietary supplements in capsule form were Lutein (12 mg/day) (Kemin Foods) and Docosahexaenoic Acid (DHASCO) (800 mg/day) (Martek Biological Sciences). Participants in each of the four supplementation groups were instructed to drink one can of a nutritional supplement daily (Boost Plus) (Mead Johnson) when taking their capsules. Subjects ingested their dietary supplements daily for a period of 4 months. Both the subjects and the experimenter were masked to the experimental groups.
(§4) Tests and Measurements. The battery of cognitive tests included tests of memory and processing speed or attention and a measure of self-reported mood. […] Early cognitive markers of the incidence of dementia and mortality: A longitudinal population-based study of the oldest old. International Journal of Geriatric Psychiatry, 12, 53-59; Payton, M., Riggs, K. M., Spiro III, A., Weiss, S. T. & Hu, H. (1998). […]

[3] = tested on: non-smoking women (60-80 years); assay: MIR (Memory in Reality) apartment test; conditions: group mean
Description: as §1, §2, §3, §4

[4] = tested on: non-smoking women (60-80 years); assay: NES2 Pattern Comparison (Pattern Recognition) Test; conditions: group mean
Description: as §1, §2, §3, §4

[5] = tested on: non-smoking women (60-80 years); assay: Stroop Test (computerized); conditions: group mean; for Stroop Test Total RT, Interference (NC-C): subtask 4 minus subtask 3
Description: as §1, §2, §3, §4

[6] = tested on: non-smoking women (60-80 years); assay: Word List Memory Test; conditions: group mean
Description: as §1, §2, §3, §4

[7] = tested on: non-smoking women (60-80 years); assay: Shopping List Task (memory test); conditions: group mean
Description: as §1, §2, §3, §4

[8] = tested on: non-smoking women (60-80 years); assay: Digit Span Forward and Backward; conditions: group mean
Description: as §1, §2, §3, §4

[9] = Baseline, before supplementation
[10] = Final, after 4 months of supplementation (DHA 800 mg/d and/or lutein 12 mg/d)
[11] = Final, after 4 months of supplementation

CC/C=C\C/C=C\C/C=C\C/C=C\C/C=C\C/C=C\CCC(=O)O [DHA, cis-4,7,10,13,16,19-docosahexaenoic acid]
Verbal Fluency [1, 9]: 15.0 | Verbal Fluency [1, 10]: 17.8 | Mood Scales Anger [2, 9]: 1.6 | Mood Scales Confusion [2, 9]: 1.7 | Mood Scales Depression [2, 9]: 1.7 | Mood Scales Fatigue [2, 9]: 2.1 | Mood Scales Tension [2, 9]: 2.0 | Mood Scales Anger [2, 11]: 1.6 | Mood Scales Confusion [2, 11]: 1.8 | Mood Scales Depression [2, 11]: 1.7 | Mood Scales Fatigue [2, 11]: 2.1 | Mood Scales Tension [2, 11]: 2.1 | MIR Apartment Test Delayed Recall (max. 10) [3, 9]: 9.4 | MIR Apartment Test Location Recall (max. 10) [3, 9]: 9.9 | MIR Apartment Test Delayed Recall (max. 10) [3, 11]: 9.4 | MIR Apartment Test Location Recall (max. 10) [3, 11]: 10.0 | Pattern Recognition Test Mean Response Time-Correct [4, 9]: 5.4 s | Pattern Recognition Test Number Correct (max. 15) [4, 9]: 14.6 | Pattern Recognition Test Mean Response Time-Correct [4, 11]: 5.0 s | Pattern Recognition Test Number Correct (max. 15) [4, 11]: 14.6 | Stroop Test Mean RT, Name Colors [5, 9]: 838 ms | Stroop Test Mean RT, Name Colors-Words [5, 9]: 1269 ms | Stroop Test Mean RT, Read Words-Black [5, 9]: 879 ms | Stroop Test Mean RT, Read Words-Color [5, 9]: 715 ms | Stroop Test Total RT, Interference (NC-C) [5, 9]: 21.5 s | Stroop Test Mean RT, Name Colors [5, 11]: 884 ms | Stroop Test Mean RT, Name Colors-Words [5, 11]: 1277 ms | Stroop Test Mean RT, Read Words-Black [5, 11]: 748 ms | Stroop Test Mean RT, Read Words-Color [5, 11]: 727 ms | Stroop Test Total RT, Interference (NC-C) [5, 11]: 19.7 s | Word List Memory Test Delayed Recall (max. 10) [6, 9]: 8.1 | Word List Memory Test Trial 1 Items Recalled (max. 10) [6, 9]: 6.3 | Word List Memory Test Trials to Learned List (max. 4) [6, 9]: 3.0 | Word List Memory Test Delayed Recall (max. 10) [6, 11]: 8.6 | Word List Memory Test Trial 1 Items Recalled (max. 10) [6, 11]: 5.9 | Word List Memory Test Trials to Learned List (max. 4) [6, 11]: 3.0 | Shopping List Memory Test Delayed Recall (max. 10) [7, 9]: 9.0 | Shopping List Memory Test Trial 1 Items Recalled (max. 10) [7, 9]: 7.2 | Shopping List Memory Test Trials to Learned List (max. 6) [7, 9]: 3.1 | Shopping List Memory Test Delayed Recall (max. 10) [7, 11]: 8.7 | Shopping List Memory Test Trial 1 Items Recalled (max. 10) [7, 11]: 7.7 | Shopping List Memory Test Trials to Learned List (max. 6) [7, 11]: 2.6 | Backward Digit Span Length [8, 9]: 5.4 | Backward Digit Span Total [8, 9]: 7.9 | Forward Digit Span Length [8, 9]: 6.6 | Forward Digit Span Total [8, 9]: 8.4 | Backward Digit Span Length [8, 11]: 5.8 | Backward Digit Span Total [8, 11]: 8.4 | Forward Digit Span Length [8, 11]: 6.7 | Forward Digit Span Total [8, 11]: 8.5

CC1=C[C@H](O)CC(C)(C)[C@H]1/C=C/C(C)=C/C=C/C(C)=C/C=C/C=C(C)/C=C/C=C(C)/C=C/C1=C(C)C[C@@H](O)CC1(C)C [Lutein, lutein]
Verbal Fluency [1, 9]: 11.3 | Verbal Fluency [1, 10]: 15.5 | Mood Scales Anger [2, 9]: 1.4 | Mood Scales Confusion [2, 9]: 1.9 | Mood Scales Depression [2, 9]: 1.5 | Mood Scales Fatigue [2, 9]: 2.4 | Mood Scales Tension [2, 9]: 2.1 | Mood Scales Anger [2, 11]: 1.5 | Mood Scales Confusion [2, 11]: 2.4 | Mood Scales Depression [2, 11]: 1.8 | Mood Scales Fatigue [2, 11]: 2.9 | Mood Scales Tension [2, 11]: 2.4 | MIR Apartment Test Delayed Recall (max. 10) [3, 9]: 8.3 | MIR Apartment Test Location Recall (max. 10) [3, 9]: 9.5 | MIR Apartment Test Delayed Recall (max. 10) [3, 11]: 8.6 | MIR Apartment Test Location Recall (max. 10) [3, 11]: 9.5 | Pattern Recognition Test Mean Response Time-Correct [4, 9]: 6.1 s | Pattern Recognition Test Number Correct (max. 15) [4, 9]: 14.5 | Pattern Recognition Test Mean Response Time-Correct [4, 11]: 6.4 s | Pattern Recognition Test Number Correct (max. 15) [4, 11]: 14.3 | Stroop Test Mean RT, Name Colors [5, 9]: 1008 ms | Stroop Test Mean RT, Name Colors-Words [5, 9]: 1492 ms | Stroop Test Mean RT, Read Words-Black [5, 9]: 844 ms | Stroop Test Mean RT, Read Words-Color [5, 9]: 753 ms | Stroop Test Total RT, Interference (NC-C) [5, 9]: 24.2 s | Stroop Test Mean RT, Name Colors [5, 11]: 1014 ms | Stroop Test Mean RT, Name Colors-Words [5, 11]: 1462 ms | Stroop Test Mean RT, Read Words-Black [5, 11]: 945 ms | Stroop Test Mean RT, Read Words-Color [5, 11]: 883 ms | Stroop Test Total RT, Interference (NC-C) [5, 11]: 22.4 s | Word List Memory Test Delayed Recall (max. 10) [6, 9]: 6.8 | Word List Memory Test Trial 1 Items Recalled (max. 10) [6, 9]: 5.8 | Word List Memory Test Trials to Learned List (max. 4) [6, 9]: 3.4 | Word List Memory Test Delayed Recall (max. 10) [6, 11]: 7.6 | Word List Memory Test Trial 1 Items Recalled (max. 10) [6, 11]: 5.8 | Word List Memory Test Trials to Learned List (max. 4) [6, 11]: 3.5 | Shopping List Memory Test Delayed Recall (max. 10) [7, 9]: 8.3 | Shopping List Memory Test Trial 1 Items Recalled (max. 10) [7, 9]: 6.9 | Shopping List Memory Test Trials to Learned List (max. 6) [7, 9]: 4.2 | Shopping List Memory Test Delayed Recall (max. 10) [7, 11]: 7.6 | Shopping List Memory Test Trial 1 Items Recalled (max. 10) [7, 11]: 6.5 | Shopping List Memory Test Trials to Learned List (max. 6) [7, 11]: 3.9 | Backward Digit Span Length [8, 9]: 5.1 | Backward Digit Span Total [8, 9]: 7.5 | Forward Digit Span Length [8, 9]: 6.6 | Forward Digit Span Total [8, 9]: 8.1 | Backward Digit Span Length [8, 11]: 4.7 | Backward Digit Span Total [8, 11]: 6.9 | Forward Digit Span Length [8, 11]: 7.0 | Forward Digit Span Total [8, 11]: 8.7
